Assay results published in patent US12503455B2, “Nucleic acid-binding photoprobes and uses thereof” (Arrakis Therapeutics, Inc., priority 2017, dated 2025).

Test system: Aptamer 21-E
Assay: SHAPE-MaP on Aptamer 21-E with and without ligand
Conditions: suggesting weak binding
Method: The SHAPE-MaP approach exploits conditions that cause reverse transcriptase to misread SHAPE-modified nucleotides and incorporate a nucleotide non-complementary to the original sequence into the newly synthesized cDNA. The positions and relative frequencies of SHAPE adducts are recorded as mutations in the cDNA primary sequence. In a SHAPE-MaP experiment, the RNA is treated with a SHAPE reagent or treated with solvent only, and the RNA is […]. RNA from each experimental condition is reverse-transcribed, and the resulting cDNAs are then sequenced. […]
SHAPE-MaP can be performed and analyzed according to detailed published methods (Martin et al., RNA 2012; 18:77-87; McGuinness et al., J. Am. Chem. Soc. 2012; 134:6617-6624; Siegfried et al., Nature Methods 2014; 11:959-965; Lavender et al., PLoS Comput. Biol. 2015; 11(5)e1004230; McGuinness et al., Proc. Natl. Acad. Sci. USA 2015; 112:2425-2430). The SHAPE-MaP sequence data can be analyzed using ShapeFinder (Vasa et al., RNA 2008; 14:1979-1990) or ShapeMapper (Siegfried et al., Nature Methods 2014; 11:959-965) or other software. […]
For all SHAPEware analysis, reads were adapter-trimmed aligned as previously described (https://bitbucket.org/arrakistx/shapeware/src) using Trimmomatic (http://dx.doi.org/10.1093/bioinformatics/btu170) and bwa-mem (https://arxiv.org/abs/1303.3997), respectively. […]

Q: `COC(=O)C1=C(COCc2cn(CCOCCOCCO)nn2)NC(c2ccncc2)=NC1c1ccc(F)cc1Cl` (racemic) [I-1] was tested. Which “alteration in SHAPE reactivity of Aptamer 21-E in presence of ligand” value did it give?
A: almost no alteration
